Holding throughout (format): cell-based
Test [1] has as its system A549 (lung adenocarcinoma). The experiment in a line: Antiproliferative activity (CCK-8 cell viability), A549. Conditions: Homo sapiens, 72 h, read-out: Antiproliferative activity in cancerous cells, A549 (inhibition of cell growth); for inhibition at 3.3 µM: Compound concentration: 3.3 μM; for inhibition at 10 µM: Compound concentration: 10 μM; for inhibition at 30 µM: Compound concentration: 30 μM. The method in brief: (§1)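 Cells were seeded at 2,000-5,000/well (HeLa in MEM, HepG2 and SW480 in DMEM, A549 in F-12K, all with 10% FBS) and treated with compound at 3.3, 10 or 30 μM for 72 h at 37° C. CCK-8 was added for 4 h, absorbance was read at 450 nm, and viability was expressed relative to DMSO-treated wells.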

Test [2] relates to MDA-MB-231 (breast cancer). The experiment in a line: Antiproliferative activity (CCK-8 cell viability), MDA-MB-231. Particulars: Homo sapiens, 72 h, read-out: Antiproliferative activity in cancerous cells, MDA-MB-231 (inhibition of cell growth); for inhibition at 3.3 µM: Compound concentration: 3.3 μM; for inhibition at 10 µM: Compound concentration: 10 μM; for inhibition at 30 µM: Compound concentration: 30 μM. The method in brief: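 In this CCK-8 viability assay, MDA-MB-231 cells maintained in Dulbecco's modified Eagle's medium containing 10% fetal bovine serum were placed in 96-well plates (2,000-5,000 cells/well) and treated with compound for 72 h at 37° C. A 4 h incubation with 10 μL CCK-8 followed, plates were read at 450 nm, and viability was expressed against DMSO vehicle wells across replicates.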

For the next test, the system named is HeLa (cervical cancer). Description: Antiproliferative activity (CCK-8 cell viability), HeLa. Particulars: Homo sapiens, 72 h, read-out: Antiproliferative activity in cancerous cells, HELA (inhibition of cell growth); for inhibition at 3.3 µM: Compound concentration: 3.3 μM; for inhibition at 10 µM: Compound concentration: 10 μM; for inhibition at 30 µM: Compound concentration: 30 μM. The method, boiled down:
as §1

For a further test, the system named is SW480 (colon cancer). The experiment in a line: Antiproliferative activity (CCK-8 cell viability), SW480. Conditions: Homo sapiens, 72 h, read-out: Antiproliferative activity in cancerous cells, SW480 (inhibition of cell growth); for inhibition at 3.3 µM: Compound concentration: 3.3 μM; for inhibition at 10 µM: Compound concentration: 10 μM; for inhibition at 30 µM: Compound concentration: 30 μM. The method in brief:
as §1

The subject of test [3] is B16F10 (malignant melanoma). The experiment in a line: Antiproliferative activity (CCK-8 cell viability), B16F10. Particulars: Mus musculus, 72 h, read-out: Antiproliferative activity in cancerous cells, B16F10 (inhibition of cell growth); for inhibition at 3.3 µM: B16-F10, Compound concentration: 3.3 μM; for inhibition at 10 µM: B16-F10, Compound concentration: 10 μM; for inhibition at 30 µM: B16-F10, Compound concentration: 30 μM. The method in brief: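 Attached B16F10 cells in 96-well plates were incubated with compound at 37° C for 72 h, followed by 10 μL CCK-8 reagent per well and a further 4 h incubation. A multi-well plate reader measured absorbance at 450 nm. Percent viability across replicates was calculated against DMSO vehicle-treated cells.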

The next test relates to HepG2 (liver cancer). The experiment in a line: Antiproliferative activity (CCK-8 cell viability), HepG2. Conditions: Homo sapiens, 72 h, read-out: Antiproliferative activity in cancerous cells, HepG2 (inhibition of cell growth); for inhibition at 3.3 µM: Compound concentration: 3.3 μM; for inhibition at 10 µM: Compound concentration: 10 μM; for inhibition at 30 µM: Compound concentration: 30 μM. The method, boiled down:
as §1

For test [4], the system named is A431 (epidermoid carcinoma). Description: Antiproliferative activity (CCK-8 cell viability), A431. Particulars: Homo sapiens, 72 h, read-out: Antiproliferative activity in cancerous cells, A431 (inhibition of cell growth); for inhibition at 3.3 µM: A-431, Compound concentration: 3.3 μM; for inhibition at 10 µM: A-431, Compound concentration: 10 μM; for inhibition at 30 µM: A-431, Compound concentration: 30 μM. The method, boiled down: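 Cell viability of compound-treated A431 cells was measured with a Cell Counting Kit-8. Each well received 10 μL of CCK-8 after 72 h of compound exposure, followed by 4 h incubation at 37° C. and a 450 nm plate-reader measurement. Percent viability was calculated relative to DMSO controls across replicates.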

By inhibition is commonly meant the change of the read-out against control, counted positive when it falls. As for `CC1=C(CC(=O)O)c2cc(F)ccc2/C1=C\c1cccc(C(F)(F)c2ccccc2)c1` [C301, (Z)-2-(1-(3-(Difluoro(phenyl)methyl)benzylidene)-5-fluoro-2-methyl-1H-inden-3-yl)acetic acid], the inhibition at 3.3 µM in test [1] was less than 30%; in test [2] it was not below 50%; in the test with HeLa (cervical cancer), less than 30%; in the test on SW480 (colon cancer), less than 30%; in test [3], 30 to 50%; in the test with HepG2 (liver cancer) it was less than 30%. The inhibition at 3.3 µM in test [4] is less than 30%. The inhibition at 10 µM was less than 30% in test [1]; not below 50% in test [2]; not below 50% in the test with HeLa (cervical cancer); less than 30% in the test on SW480 (colon cancer); not below 50% in test [3]; less than 30% in the test with HepG2 (liver cancer). Also, in test [4], the inhibition at 10 µM is less than 30%. The inhibition at 30 µM (in test [1]; in test [2]; in the test with HeLa (cervical cancer); with SW480 (colon cancer); in test [3]; in the test with HepG2 (liver cancer)) was not below 50% throughout. Further, in test [4], the inhibition at 30 µM is not below 50%.

Turning to `CC1=C(CC(=O)O)c2cc(F)ccc2/C1=C\c1ccc(C(=O)c2cc3ccccc3s2)cc1` [C303, (Z)-2-(1-(4-(Benzo[b]thiophene-2-carbonyl)benzylidene)-5-fluoro-2-methyl-1H-inden-3-yl)acetic acid], the inhibition at 3.3 µM in test [1] was 30 to 50%; in test [2], not below 50%; with HeLa (cervical cancer), 30 to 50%; with SW480 (colon cancer), 30 to 50%; in test [3] it was not below 50%; in the test on HepG2 (liver cancer) it was 30 to 50%. Also, the inhibition at 3.3 µM in test [4] is less than 30%. Further, the inhibition at 10 µM (in test [1]; in test [2]; in the test with HeLa (cervical cancer); with SW480 (colon cancer); in test [3]; in the test with HepG2 (liver cancer)) was not below 50% throughout. The inhibition at 10 µM in test [4] is not below 50%. Besides, the inhibition at 30 µM (in test [1]; in test [2]; in the test with HeLa (cervical cancer); in the test on SW480 (colon cancer); in test [3]; in the test with HepG2 (liver cancer)) was not below 50% each time. Also, the inhibition at 30 µM in test [4] was not below 50%.

For the compound `CC1=C(CC(=O)O)c2cc(F)ccc2/C1=C\c1cccc(C(=O)c2ccccc2)c1` [C304, (Z)-2-(1-(3-Benzoylbenzylidene)-5-fluoro-2-methyl-1H-inden-3-yl)acetic acid], the inhibition at 3.3 µM was less than 30% in test [1]; less than 30% in test [2]; 30 to 50% in the test with HeLa (cervical cancer); less than 30% with SW480 (colon cancer); less than 30% in test [3]; 30 to 50% in the test on HepG2 (liver cancer). Besides, the inhibition at 3.3 µM in test [4] was less than 30%. The inhibition at 10 µM in test [1] is not below 50%; in test [2] it was 30 to 50%; in the test with HeLa (cervical cancer), not below 50%; in the test on SW480 (colon cancer), not below 50%; in test [3] it was not below 50%; with HepG2 (liver cancer) it was not below 50%. For the same compound, in test [4], the inhibition at 10 µM fell in the range of 30 to 50%. For the same compound, the inhibition at 30 µM (in test [1]; in test [2]; in the test on HeLa (cervical cancer); with SW480 (colon cancer); in test [3]; with HepG2 (liver cancer)) was not below 50% each time. Besides, the inhibition at 30 µM in test [4] is not below 50%.

In the case of `CC1=C(CC(=O)O)c2cc(F)ccc2/C1=C\c1ccc(C(=O)c2ccc(F)cc2)cc1` [C305, (Z)-2-(5-Fluoro-1-(4-(4-fluorobenzoyl)benzylidene)-2-methyl-1H-inden-3-yl)acetic acid], the inhibition at 3.3 µM is less than 30% in test [1]; not below 50% in test [2]; 30 to 50% in the test with HeLa (cervical cancer); 30 to 50% with SW480 (colon cancer); less than 30% in test [3]; 30 to 50% in the test with HepG2 (liver cancer). Besides, in test [4], the inhibition at 3.3 µM lay in the range of 30 to 50%. The inhibition at 10 µM (in test [1]; in test [2]; in the test on HeLa (cervical cancer); with SW480 (colon cancer); in test [3]; with HepG2 (liver cancer)) was not below 50% throughout. Also, in test [4], the inhibition at 10 µM is not below 50%. Moreover, the inhibition at 30 µM (in test [1]; in test [2]; in the test with HeLa (cervical cancer); with SW480 (colon cancer); in test [3]; with HepG2 (liver cancer)) was not below 50% each time. Further, the inhibition at 30 µM in test [4] is not below 50%.

With `COc1ccc(C(=O)c2ccc(/C=C3/C(C)=C(CC(=O)O)c4cc(F)ccc43)cc2)cc1` [C306, (Z)-2-(5-Fluoro-1-(4-(4-methoxybenzoyl)benzylidene)-2-methyl-1H-inden-3-yl)acetic acid], the inhibition at 3.3 µM was less than 30% in test [1]; not below 50% in test [2]; 30 to 50% in the test with HeLa (cervical cancer); 30 to 50% in the test with SW480 (colon cancer); less than 30% in test [3]; 30 to 50% in the test on HepG2 (liver cancer). Further, the inhibition at 3.3 µM in test [4] is not below 50%. Further, the inhibition at 10 µM in test [1] is 30 to 50%; in test [2], not below 50%; in the test on HeLa (cervical cancer), not below 50%; in the test on SW480 (colon cancer), 30 to 50%; in test [3], not below 50%; in the test with HepG2 (liver cancer), not below 50%. In addition, in test [4], the inhibition at 10 µM is not below 50%. In addition, the inhibition at 30 µM is 30 to 50% in test [1]; not below 50% in test [2]; not below 50% in the test with HeLa (cervical cancer); not below 50% in the test with SW480 (colon cancer); not below 50% in test [3]; not below 50% in the test on HepG2 (liver cancer). The inhibition at 30 µM in test [4] is not below 50%.

With `CC1=C(CC(=O)O)c2cc(F)ccc2/C1=C\c1ccc(C(=O)c2ccccc2)cc1` [C307, (Z)-2-(1-(4-Benzoylbenzylidene)-5-fluoro-2-methyl-1H-inden-3-yl)acetic acid], the inhibition at 3.3 µM was less than 30% in test [1]; 30 to 50% in test [2]; less than 30% in the test with HeLa (cervical cancer); less than 30% with SW480 (colon cancer); less than 30% in test [3]; 30 to 50% in the test with HepG2 (liver cancer). For the same compound, the inhibition at 3.3 µM in test [4] was in the range of 30 to 50%. Further, the inhibition at 10 µM (in test [1]; in test [2]; in the test with HeLa (cervical cancer); in the test on SW480 (colon cancer); in test [3]; with HepG2 (liver cancer)) was not below 50% in each case. The inhibition at 10 µM in test [4] is not below 50%.

Source of the values: patent US20260184663A1, “INDENE COMPOUNDS, PHARMACEUTICAL COMPOSITIONS THEREOF, AND THEIR THERAPEUTIC APPLICATIONS” (NucMito Pharmaceuticals co. Ltd., priority 2022, published 2026).
